Measurements taken from patent US11419875B2, “Compounds and compositions for treating hematological disorders” (Aurigene Discovery Technologies Limited, priority 2017, dated 2022).

tested on: MV4-11 cells; experiment: MV4-11 CellTiter Glo cell viability/proliferation assay (Example 2); assay type: cell-based; settings: Homo sapiens, 72 hours, CellTiter Glo, read-out: MV4-11 IC50
Experimental: The CellTiter Glo Luminescent cell viability assay is a highly sensitive homogenous assay to determine the number of viable cells in culture based on quantitation of ATP levels in metabolically active cells. Addition of CTG reagent results in cell lysis and generation of a luminescent signal proportional to the amount of ATP present. The amount of ATP is proportional to the number of cells present. The luminescence is measured using a multilabel reader capable of measuring luminescence. An increase or decrease in cell numbers results in a concomitant change in luminescene level, indicating the effect of the test material on cellular proliferation.
CellTiter-Glo buffer was thawed and equilibrated to room temperature. Lyophilized CellTiter-Glo substrate was brought to room temperature. CTG reagent is prepared by mixing the CellTiter-Glo buffer (Promega Cat #G7572) into an amber bottle containing CellTiter-Glo substrate to reconstitute the lyophilized enzyme/substrate mixture. Both Buffer and the lyophilized substrate are supplied with the kit.
Add 1% Penicillin Streptomycin and 10% FBS to commercially available liquid IMDM (Iscove's Modified Dulbecco's Medium, Invitrogen Cat #12440046).
1. MV4-11 cells were counted and re-suspended to a density of 0.1×10^6 cells/ml in complete IMDM medium. 95 μL of this cell suspension was added per well of a 96-well plate (black plate with clear bottom) to seed ˜0.1×10^5 cells per well. The plates were incubated at 37° C. under a humidified atmosphere of 5% CO2 for ˜2 hours before compound addition. 2. Test compounds were dissolved in 100% DMSO to generate a 2/6/10/20 mM stock solution. A 200× concentration of the required final concentrations was prepared in DMSO. 10 μL of each concentration (200×) was then diluted in 90 μL of serum-free IMDM to prepare an intermediate concentration of 20× in medium. The DMSO concentration in this step was 10% (Intermediate dilution). 5 μL of each intermediate dilution was then added in triplicates to cells previously seeded in 96-well plate. The final DMSO concentration was 0.5% in the experimental wells. Cells treated with 0.5% DMSO served as a positive control. 100 μL of complete IMDM medium served as media blank for data analysis. 200 μL of 1×PBS was added in all corner wells of the assay plate to avoid evaporation of media in experimental wells. Plates were then incubated for 72 hours in an incubator with 5% CO2 at 37° C. 3. To terminate the assay, 50 μL of CTG reagent was added to each well and the plate was incubated at room temperature for 15 minutes on a shaker. The plate was read using the luminescence mode on a multilabel reader capable of measuring luminescence. The luminescence values were plotted against respective concentrations of the test item using GraphPad Prism to calculate the IC50 value for the test item. Percent Inhibition is Calculated as Follows: […]
Positive control wells contained cells, IMDM medium and 0.5% DMSO. Blank control wells contained IMDM medium alone.

**Q.** Which IC50 does the source give for `Cc1cc(-c2nc(C(=O)Nc3cc4sc(N5CCOCC5)nc4nc3N3CC[C@H](O)C3)co2)ccn1` here?
**A.** < 50 nM

**Q.** `Cn1cc(-c2cccc(C(=O)Nc3cc4sc(N5CCOCC5)nc4nc3N3CCCCC3)n2)cn1` was tested. Which IC50 did it give?
**A.** < 50 nM

**Q.** Which IC50 does the source give for `C[C@H](O)Cn1cc(-c2cccc(C(=O)Nc3cc4sc(N5CCOCC5)nc4nc3C3CC3)n2)cn1` here?
**A.** < 50 nM

**Q.** Which IC50 does the source give for `Cc1cc(-c2nc(C(=O)Nc3cc4sc(N5CCOCC5)nc4nc3N3CC[C@@H](O)C3)co2)ccn1` here?
**A.** < 50 nM

**Q.** Which IC50 does the source give for `Nc1ccc(-c2cccc(C(=O)Nc3cc4sc(N5CCOCC5)nc4cn3)n2)cn1` here?
**A.** 50 to 500 nM

**Q.** For `O=C(Nc1cc2oc(N3CCOCC3)nc2nc1N1CCCCC1)c1cccc(-c2cn[nH]c2)n1`, which IC50 is on record?
**A.** < 50 nM

**Q.** `N[C@H]1CCN(c2cccc(C(=O)Nc3cc4sc(N5CCOCC5)nc4nc3N3CCCCC3)n2)C1` was tested. Which IC50 did it give?
**A.** > 500 nM

**Q.** `O=C(Nc1cc2oc(N3CCCCC3)nc2nc1N1CCCCC1)c1cccc(-c2cn[nH]c2)n1` was tested. Which IC50 did it give?
**A.** < 50 nM

**Q.** With `C[C@H](O)Cn1cc(-c2cccc(C(=O)Nc3cc4cn(C)nc4cc3C3CC3)n2)cn1` as the compound, how does the IC50 read?
**A.** < 50 nM

**Q.** With `O=C(Nc1cc2sc(N3CCCCC3)nc2nc1N1CCCCC1)c1cccc(N2CC[C@H](O)C2)n1` as the compound, how does the IC50 read?
**A.** > 500 nM

**Q.** `Cc1ccc(C(=O)Nc2cc3cn(C)nc3cc2N2CCCCC2)nc1-c1cnn(C)c1` was tested. Which IC50 did it give?
**A.** < 50 nM

**Q.** How did the IC50 turn out when `Cc1cc(-c2nc(C(=O)Nc3cc4sc(N5CCOCC5)nc4nc3C3CC3)co2)ccn1` was run?
**A.** < 50 nM

**Q.** Which IC50 does the source give for `O=C(Nc1cc2sc(N3CCOCC3)nc2nc1N1CCCCC1)c1cccc(N2CC[C@H](O)C2)n1` here?
**A.** > 500 nM

**Q.** Which IC50 does the source give for `C[C@H](O)Cn1cc(-c2cccc(C(=O)Nc3cc4sc(N5CCOCC5)nc4nc3N3CCCCC3)n2)cn1` here?
**A.** < 50 nM

**Q.** Which IC50 does the source give for `Cn1cc2cc(NC(=O)c3cccc(N4CCC(O)C4)n3)c(N3CCCCC3)cc2n1` (stereo not shown) here?
**A.** 50 to 500 nM

**Q.** For `Cc1cc(-c2nc(C(=O)Nc3cc4cn(C)nc4cc3C3CC3)co2)ccn1`, which IC50 is on record?
**A.** < 50 nM

**Q.** `Nc1ccc(-c2cccc(C(=O)Nc3cc4oc(N5CCOCC5)nc4nc3C3CC3)n2)cn1` was tested. Which IC50 did it give?
**A.** > 500 nM

**Q.** With `Cc1cc(-c2nc(C(=O)Nc3cc4oc(N5CCOCC5)nc4nc3N3CC[C@@H](O)C3)co2)ccn1` [drawing 32] as the compound, how does the IC50 read?
**A.** < 50 nM

**Q.** For `Cn1cc2cc(NC(=O)c3cccc(N4CC[C@H](O)C4)n3)c(N3CCCCC3)cc2n1`, which IC50 is on record?
**A.** 50 to 500 nM

**Q.** `Cn1cc(-c2cccc(C(=O)Nc3cc4sc(N5CCCCC5)nc4nc3N3CCCCC3)n2)cn1` was tested. Which IC50 did it give?
**A.** < 50 nM

**Q.** How did the IC50 turn out when `O=C(Nc1cc2sc(N3CCCCC3)nc2nc1N1CCCCC1)c1cccc(-c2cn[nH]c2)n1` was run?
**A.** 50 to 500 nM

**Q.** How did the IC50 turn out when `Cn1cc2cc(NC(=O)c3cccc(N4CC[C@@H](O)C4)n3)c(N3CCCCC3)cc2n1` was run?
**A.** > 500 nM

**Q.** For `Cc1cc(-c2nc(C(=O)Nc3cc4oc(N5CCOCC5)nc4nc3N3CC[C@H](O)C3)co2)ccn1`, which IC50 is on record?
**A.** < 50 nM

**Q.** `Nc1ccc(-c2cccc(C(=O)Nc3cnc4nc(N5CCOCC5)sc4c3)n2)cn1` was tested. Which IC50 did it give?
**A.** > 500 nM

**Q.** Which IC50 does the source give for `Cc1nn(C)c2cc(N3CCC(CO)CC3)c(NC(=O)c3coc(-c4ccnc(N)c4)n3)cc12` here?
**A.** < 50 nM

**Q.** For `Nc1ccc(-c2cccc(C(=O)Nc3cc4cn(C5CCCC5)nc4cc3N3CCOCC3)n2)cn1`, which IC50 is on record?
**A.** < 50 nM

**Q.** Which IC50 does the source give for `O=C(Nc1cc2oc(N3CCOCC3)nc2nc1N1CCCCC1)c1cccc(N2CC[C@H](O)C2)n1` here?
**A.** > 500 nM

**Q.** How did the IC50 turn out when `O=C(Nc1cc2sc(N3CCOCC3)nc2nc1N1CCCCC1)c1coc(N2CC[C@H](O)C2)n1` was run?
**A.** < 50 nM

**Q.** How did the IC50 turn out when `Cc1cc(-c2nc(C(=O)Nc3cnc4nc(N5CCOCC5)sc4c3)co2)ccn1` was run?
**A.** < 50 nM

**Q.** For `Cc1ccc(C(=O)Nc2cc3cn(C)nc3cc2N2CCCCC2)nc1-c1ccc(N)nc1`, which IC50 is on record?
**A.** < 50 nM

**Q.** How did the IC50 turn out when `O=C(Nc1cc2sc(N3CCOCC3)nc2nc1N1CCC1)c1cccc(N2CC[C@H](O)C2)n1` was run?
**A.** > 500 nM

**Q.** Which IC50 does the source give for `O=C(Nc1cc2sc(N3CCOCC3)nc2nc1C1CC1)c1cccc(N2CC[C@H](O)C2)n1` here?
**A.** > 500 nM

**Q.** For `C[C@H](O)Cn1cc(-c2cccc(C(=O)Nc3cc4cn(C)nc4cc3N3CCCCC3)n2)cn1`, which IC50 is on record?
**A.** < 50 nM

**Q.** `N[C@H]1CCN(c2cccc(C(=O)Nc3cc4sc(N5CCCCC5)nc4nc3N3CCCCC3)n2)C1` was tested. Which IC50 did it give?
**A.** > 500 nM

tested on: MV4-11 cells; experiment: AML xenograft model MV4-11, in vivo tumor growth inhibition; settings: 100 mg/kg i.p. once daily, 21 days
Experimental: ND-2158 at 100 mpk was used as a control.
MV4-11 cells were grown in Iscove's Modified Dulbecco's medium supplemented with 10% FBS and 1% penicillin streptomycin. To establish tumors, 15×10^6 MV4-11 cells were injected subcutaneously in 200 μl of 1:1 HBSS and ECM gel into the right flank of the athymic nude mice. Animals were randomized based on tumor volumes. […] Treatments were initiated when the average tumor volume sizes were 333 mm^3. Tumor volumes were measured three times a week and body weights were monitored daily.

**Q.** Which results are given for `NC(=O)[C@@H](O)C[C@H]1CCc2sc3ncnc(OC4CCC(N5CCOCC5)CC4)c3c21` (stereo partly shown) [ND-2158, reference compound]?
**A.** tolerability (clinical signs, gross pathological changes): well tolerated without any treatment related clinical signs and gross pathological changes; tumor growth inhibition: 68%

same assay, conditions: all treatment groups, 21 days, FIG. 4

**Q.** How did the body weight turn out when `NC(=O)[C@@H](O)C[C@H]1CCc2sc3ncnc(OC4CCC(N5CCOCC5)CC4)c3c21` (stereo partly shown) [ND-2158, reference compound] was run?
**A.** No body weight reduction was observed
